The record followed here is ChEMBL document CHEMBL1136061, “Novel potent antagonists of human neuropeptide Y Y5 receptors. Part 2: substituted benzo[a]cycloheptene derivatives” (Bioorg Med Chem Lett, 2002).

The target of assay [1] is T1, Neuropeptide Y receptor type 5 (Homo sapiens, UniProt Q15761).
T1 sequence (Q15761 whole entry): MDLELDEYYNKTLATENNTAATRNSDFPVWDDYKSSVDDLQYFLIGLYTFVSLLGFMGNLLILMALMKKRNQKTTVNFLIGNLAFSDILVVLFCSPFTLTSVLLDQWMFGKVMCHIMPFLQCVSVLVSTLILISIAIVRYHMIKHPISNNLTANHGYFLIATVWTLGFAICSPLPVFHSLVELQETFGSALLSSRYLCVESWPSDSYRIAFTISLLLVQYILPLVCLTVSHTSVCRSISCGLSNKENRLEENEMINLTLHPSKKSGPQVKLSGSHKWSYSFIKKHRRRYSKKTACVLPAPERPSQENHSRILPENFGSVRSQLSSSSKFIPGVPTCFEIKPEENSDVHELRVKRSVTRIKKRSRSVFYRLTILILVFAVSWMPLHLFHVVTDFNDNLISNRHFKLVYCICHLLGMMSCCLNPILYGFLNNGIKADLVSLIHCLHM
The assay is described as follows: (§1) Concentration that inhibited 50% of total specific binding of [125I]PYY ligand to human NPY-Y5 receptor.

In assay [2] the target is T2, Neuropeptide Y receptor type 1 (Homo sapiens, UniProt P25929).
T2 sequence (P25929 whole entry): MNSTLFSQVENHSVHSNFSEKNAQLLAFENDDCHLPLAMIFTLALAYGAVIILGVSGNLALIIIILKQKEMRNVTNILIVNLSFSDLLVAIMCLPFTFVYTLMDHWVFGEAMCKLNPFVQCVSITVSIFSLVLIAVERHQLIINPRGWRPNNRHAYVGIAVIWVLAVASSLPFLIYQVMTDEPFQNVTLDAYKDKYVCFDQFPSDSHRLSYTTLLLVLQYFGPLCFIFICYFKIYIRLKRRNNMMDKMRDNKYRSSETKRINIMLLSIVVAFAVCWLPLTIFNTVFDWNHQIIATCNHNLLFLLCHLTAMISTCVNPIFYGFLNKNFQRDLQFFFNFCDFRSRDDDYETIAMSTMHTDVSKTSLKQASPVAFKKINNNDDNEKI
Description: Concentration that inhibited 50% of total specific binding of [125I]PYY ligand to human NPY-Y1 receptor.

Assay [3] addresses T3, Neuropeptide Y receptor type 5 (Homo sapiens) (UniProt Q15761).
T3 sequence (whole entry): T1 sequence (Q15761 whole entry)
The description is as §1.

In the case of `COc1ccc2c(c1)CC(CNC1CCN(CCNS(=O)(=O)c3cccc4ccccc34)CC1)CCC2` (stereo not drawn), the figures for the IC50 in assay [1] and in assay [2] were 39 nM and 29000 nM, respectively.

With `O=[N+]([O-])c1ccc2c(c1)CC(NCC1CCN(CCNS(=O)(=O)c3cccc4ccccc34)CC1)CCC2` (stereo not drawn), the IC50 – broadly, the concentration at which inhibition is half-maximal – came to 79 nM in assay [1] and 15000 nM in assay [2].

As for `Cc1ccc2c(c1)CC(NCC1CN(CCNS(=O)(=O)c3cccc4ccccc34)C1)CCC2` (stereo not drawn), the IC50 in assay [1] was determined as 190 nM.

With `O=S(=O)(NC[C@H]1CC[C@@H](CNCC2CCc3ccccc3C2)CC1)c1cccc2ccccc12` (stereo partly drawn), the IC50 in assay [1] is 38 nM; in assay [2], 1300 nM.

As for `O=S(=O)(NCCN1CC(CNC2CCCc3ccc(Cl)cc3C2)C1)c1cccc2ccccc12` (stereo not drawn), the IC50 in assay [1] amounted to 310 nM.

Take `O=C(O)COc1ccc2c(c1)CC(NCC1CCN(CCNS(=O)(=O)c3cccc4ccccc34)CC1)CCC2` (stereo not drawn): in assay [3], the inhibition (usually how much of the control response was suppressed) stood at 25.7%.

On to `COc1ccc2c(c1)CC(CNCC1CN(CCNS(=O)(=O)c3cccc4ccccc34)C1)CCC2` (stereo not drawn), for which the IC50 stood at 86 nM in assay [1] and 22000 nM in assay [2].

With `COc1ccc2c(c1)CC(NC1CCN(CCNS(=O)(=O)c3cccc4ccccc34)CC1)CCC2` (stereo not drawn), the IC50 worked out at 66 nM in assay [1] and 35000 nM in assay [2].

On to `O=S(=O)(NCCN1CCC(CNC2CCCc3ccc(Cl)cc3C2)CC1)c1cccc2ccccc12` (stereo not drawn), for which the IC50 in assay [1] was found to be 85 nM; in assay [2], 8500 nM.

With `COc1ccc2c(c1OC)CC(NCC1CN(CCNS(=O)(=O)c3cccc4ccccc34)C1)CCC2` (stereo not drawn), the IC50 in assay [1] stood at 140 nM.

For `COc1cc2c(cc1OC)CC(NCC1CCN(CCNS(=O)(=O)c3cccc4ccccc34)CC1)CCC2` (stereo not drawn), the concentration for half-maximal inhibition (IC50) turned out to be 68 nM in assay [1] and 17000 nM in assay [2].

On to `Nc1ccc2c(c1)CC(NCC1CCN(CCNS(=O)(=O)c3cccc4ccccc34)CC1)CCC2` (stereo not drawn), for which, in assay [1], the IC50 is 52 nM.

Take `COc1ccc2c(c1)CC(NCCN1CCC(CNS(=O)(=O)c3cccc4ccccc34)CC1)CCC2` (stereo not drawn): the IC50 in assay [1] came to 740 nM; in assay [2], 19000 nM.

With `COc1cccc2c1CCCC(NCCN1CCC(CNS(=O)(=O)c3cccc4ccccc34)CC1)C2` (stereo not drawn), in assay [1], the IC50 was above 1000 nM.

Regarding `COc1ccc2c(c1)CC(CNCCN1CCC(CNS(=O)(=O)c3cccc4ccccc34)CC1)CCC2` (stereo not drawn), the figures for the IC50 in assay [1] and in assay [2] were 540 nM and 2800 nM, respectively.

As for `CCOC(=O)COc1ccc2c(c1)CC(NCC1CCN(CCNS(=O)(=O)c3cccc4ccccc34)CC1)CCC2` (stereo not drawn), the IC50 in assay [1] was 680 nM. That is a sub-micromolar value.

`COc1ccc2c(c1)CCCC(NCCN1CCC(CNS(=O)(=O)c3cccc4ccccc34)CC1)C2` (stereo not drawn): the IC50 in assay [1] came to 1000 nM. This IC50 and that of the compound before are within 1.5-fold of each other.

For the compound `COc1ccc2c(c1)CC(CNCC1CCN(CCNS(=O)(=O)c3cccc4ccccc34)CC1)CCC2` (stereo not drawn), the figures for the IC50 in assay [1] and in assay [2] were 16 nM and 9600 nM, respectively.

Turning to `O=S(=O)(NCCN1CCC(CNC2CCCc3ccccc3C2)CC1)c1cccc2ccccc12` (stereo not drawn), in assay [1], the IC50 stood at 210 nM.

On to `COc1ccc2c(c1)CC(NCC1CCN(CCNS(=O)(=O)c3cccc4ccccc34)CC1)CCC2` (stereo not drawn), for which the IC50 is 45 nM in assay [1] and 14000 nM in assay [2].

Regarding `Cc1ccc2c(c1)CC(NCC1CCN(CCNS(=O)(=O)c3cccc4ccccc34)CC1)CCC2` (stereo not drawn), the IC50 in assay [1] amounted to 72 nM; in assay [2], 18000 nM.
